Literature values as cited in US9445992B2, “Mucosal delivery compositions comprising a peptide complexed with a crown compound and/or a counter ion” (ARISGEN SA, priority 2009, dated 2016).

Conditions: in water

pKa: < 2
Compound: CCCCCCCCCCCC(=O)OC[C@H](COP(=O)(O)OCC(O)CO)OC(=O)CCCCCCCCCCC (stereo partly shown) [DLPG, dilauryloylphosphatidylglycerol]
